Experimental data taken from PMC7618375, “Structure and Methyl-lysine Binding Selectivity of the HUSH Complex Subunit MPP8” (Journal of molecular biology, 2024).
Non-standard residues stand in square brackets, D forms with d. Residues, ends and D or L forms follow the SMILES beside them. Lys(Me3) = C[N+](C)(C)CCCC[C@H](N)C(=O)O

What follows are compounds tested against T1, MPP8 CD (chromodomain, residues 55–116) (Homo sapiens, UniProt Q99549) (assay: Isothermal titration calorimetry (ITC) of H3K9 and H3K9-like peptides titrated into MPP8 CD). Conditions: 50 mM HEPES pH 7.4, 0.1 M NaCl, 0.5 mM TCEP, 25 °C, 50 μM MPP8 CD in cell, 750 μM peptide in syringe, single-site model.
T1 construct: The MPP8 CD (residues 55–116) was cloned with a tobacco etch virus (TEV) protease cleavage site; His6 (N); TEV protease cleavage site (ENLYFQG) (N); made in house; host or cells: E. coli BL21 (DE3)
T1 sequence (Q99549 55-116): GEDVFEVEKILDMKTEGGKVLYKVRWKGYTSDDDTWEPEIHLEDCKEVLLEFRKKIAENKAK
Type: binding
Description: H3K9 and H3K9-like peptides, unmethylated or lysine-trimethylated, were chemically synthesized (Bio Basic Inc/NBS Biologicals Ltd). Binding of MPP8 CD to H3K9 and H3K9-like peptides was analyzed in 50 mM HEPES pH 7.4, 0.1 M NaCl, 0.5 mM TCEP at 25 °C (298 K), with an AutoiTC200 calorimeter (MicroCal). The sample cell was loaded with 0.37 ml of 50 μM MPP8 CD and the titrant syringe with 750 μM peptide. 20 serial injections of […] peptide solution were performed at 3 min intervals. The stirring speed was 1,000 rpm and the reference power was maintained at 6.06 µcal s^−1. The net heat absorption or release associated with each injection was calculated by subtracting the heat associated with the injection of peptide solution to buffer. Thermodynamic parameters were extracted from a curve fit to the data to a single-site model with Origin 7.0 (MicroCal).

Going from `CSCC[C@H](NC(=O)[C@@H](NC(=O)[C@H](CCCC[N+](C)(C)C)NC(=O)[C@H](CCCNC(=N)N)NC(=O)[C@H](C)NC(=O)[C@H](CCCNC(=N)N)NC(=O)[C@H](Cc1c[nH]cn1)NC(=O)[C@@H](NC(=O)[C@@H](N)CCCCN)C(C)C)[C@@H](C)O)C(=O)N1CCC[C@H]1C(=O)N[C@@H](CCCCN)C(=O)N[C@@H](CO)C(=O)N[C@H](C(=O)O)C(C)C` [GLP 199-211 K205me3] (H-KVHRAR[Lys(Me3)]TMPKSV-OH) to `CSCC[C@H](NC(=O)[C@@H](NC(=O)[C@H](CCCC[N+](C)(C)C)NC(=O)[C@H](CCCNC(=N)N)NC(=O)[C@H](C)NC(=O)[C@H](CCCNC(=N)N)NC(=O)[C@H](Cc1c[nH]cn1)NC(=O)[C@@H](NC(=O)[C@@H](N)CCCCN)C(C)C)[C@@H](C)O)C(=O)N[C@@H](CO)C(=O)N[C@@H](CCCCN)C(=O)N1CCC[C@H]1C(=O)O` [G9a 179-190 K185me3] (H-KVHRAR[Lys(Me3)]TMSKP-OH), the Kd rises from 0.337 ± 0.064 µM to 1.31 µM (3.9-fold). The first binds more tightly here.

Going from `C[C@H](NC(=O)[C@H](CCCCN)NC(=O)CNC(=O)CNC(=O)[C@@H](NC(=O)[C@H](CO)NC(=O)[C@H](CCCC[N+](C)(C)C)NC(=O)[C@H](CCCNC(=N)N)NC(=O)[C@H](C)NC(=O)[C@@H](NC(=O)[C@H](CCC(N)=O)NC(=O)[C@@H](N)CCCCN)[C@@H](C)O)[C@@H](C)O)C(=O)O` [H3.1 4-15 K9me3, reference compound] to `CC(C)C[C@H](N)C(=O)N[C@@H](C)C(=O)N[C@H](C(=O)N[C@@H](CCCCN)C(=O)N[C@@H](C)C(=O)N[C@@H](C)C(=O)N[C@@H](CCCNC(=N)N)C(=O)N[C@@H](CCCC[N+](C)(C)C)C(=O)N[C@@H](CO)C(=O)N[C@@H](C)C(=O)N1CCC[C@H]1C(=O)N[C@@H](C)C(=O)N[C@H](C(=O)NCC(=O)NCC(=O)N[C@H](C(=O)N[C@@H](CCCCN)C(=O)O)C(C)C)[C@@H](C)O)[C@@H](C)O` [H3.1 20-36 K27me3, reference compound], the Kd rises from 0.769 ± 0.065 µM to over 50 µM. The first binds more tightly here.

Compared with `CSCC[C@H](NC(=O)[C@@H](NC(=O)[C@H](CCCC[N+](C)(C)C)NC(=O)[C@H](CCCNC(=N)N)NC(=O)[C@H](C)NC(=O)[C@H](CCCCN)NC(=O)[C@H](Cc1ccccc1)NC(=O)[C@@H](NC(=O)[C@@H](N)CCCCN)C(C)C)[C@@H](C)O)C(=O)N[C@@H](CCCNC(=N)N)C(=O)N[C@H](C(=O)N[C@@H](CO)C(=O)O)C(C)C` [ATF7IP 10-21 K16me3] (H-KVFKAR[Lys(Me3)]TMRVS-OH), `CC[C@H](C)[C@H](NC(=O)CNC(=O)[C@H](Cc1c[nH]cn1)NC(=O)[C@@H](NC(=O)[C@H](CO)NC(=O)[C@H](CCCC[N+](C)(C)C)NC(=O)[C@H](CC(C)C)NC(=O)[C@H](C)NC(=O)[C@H](Cc1ccccc1)NC(=O)CNC(=O)[C@@H](N)CCCNC(=N)N)[C@@H](C)O)C(=O)O` [SETDB1 1165-1175 K1170me3] (H-RGFAL[Lys(Me3)]STHGI-OH) is 8-fold higher in Kd: 0.193 ± 0.031 µM for the first, 1.55 µM for the second.

Work on `CC[C@H](C)[C@H](NC(=O)CNC(=O)[C@H](Cc1c[nH]cn1)NC(=O)[C@@H](NC(=O)[C@@H](N)CO)[C@@H](C)O)C(=O)N[C@@H](C)C(=O)N[C@H](C(=O)N[C@@H](CCCC[N+](C)(C)C)C(=O)N[C@@H](CO)C(=O)N[C@H](C(=O)N[C@@H](CC(N)=O)C(=O)N[C@@H](CCSC)C(=O)N[C@@H](C)C(=O)N[C@@H](CO)C(=O)O)[C@@H](C)O)[C@@H](C)CC` [SETDB1 1171-1184 K1178me3] (H-STHGIAI[Lys(Me3)]STNMAS-OH; N-terminus and C-terminus assumed) yielded a Kd of over 50 µM.

Same assay, conditions: Figure 4B, 50 mM HEPES pH 7.4, 0.1 M NaCl, 0.5 mM TCEP, 25 °C, single-site model

In the case of `CC[C@H](C)[C@H](NC(=O)CNC(=O)[C@H](Cc1c[nH]cn1)NC(=O)[C@@H](NC(=O)[C@@H](N)CO)[C@@H](C)O)C(=O)N[C@@H](C)C(=O)N[C@H](C(=O)N[C@@H](CCCC[N+](C)(C)C)C(=O)N[C@@H](CO)C(=O)N[C@H](C(=O)N[C@@H](CC(N)=O)C(=O)N[C@@H](CCSC)C(=O)N[C@@H](C)C(=O)N[C@@H](CO)C(=O)O)[C@@H](C)O)[C@@H](C)CC` [SETDB1 1171-1184 K1178me3] (H-STHGIAI[Lys(Me3)]STNMAS-OH; N-terminus and C-terminus assumed), the Kd is reported as over 80 µM.
